Reference: patent publication US8987301B2, “Heteroarylaminoquinolines as TGF-beta receptor kinase inhibitors” (Merck Patent GmbH, priority 2009, dated 2015)

Biological target: T1, TβR (GST-ALK5) (Homo sapiens, UniProt P36897)
T1 sequence (P36897 34-503): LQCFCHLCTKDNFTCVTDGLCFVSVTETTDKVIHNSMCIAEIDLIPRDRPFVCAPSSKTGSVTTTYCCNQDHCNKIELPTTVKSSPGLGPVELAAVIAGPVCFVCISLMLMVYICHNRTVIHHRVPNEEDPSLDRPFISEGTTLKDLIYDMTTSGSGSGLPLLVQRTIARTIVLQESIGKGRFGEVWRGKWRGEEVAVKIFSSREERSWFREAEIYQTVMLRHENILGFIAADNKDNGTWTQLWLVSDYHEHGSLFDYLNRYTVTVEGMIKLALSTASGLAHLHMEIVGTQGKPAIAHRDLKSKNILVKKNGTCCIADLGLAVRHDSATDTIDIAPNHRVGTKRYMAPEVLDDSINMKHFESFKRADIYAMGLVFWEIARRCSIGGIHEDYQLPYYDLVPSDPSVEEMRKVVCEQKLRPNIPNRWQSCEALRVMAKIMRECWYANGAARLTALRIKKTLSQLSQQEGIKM
Experiment: In-vitro (enzyme) flashplate kinase assay, TβR activity
Assay type: biochemical
Settings: GST-ALK5, GST-SMAD2 substrate, 3 mM ATP
Experimental: In-Vitro (Enzyme) Assay for Determination of the Efficacy of Inhibitors of the Inhibition of TGF-Beta-Mediated Effects
The kinase assay was carried out as 384-well flashplate assay. […] The reaction was stopped using 25 μl of 200 mM EDTA solution, filtered with suction at room temperature after 30 min, and the wells were washed with 3 times 100 μl of 0.9% NaCl solution. Radioactivity was measured in the TopCount. The IC50 values were calculated using RS1. Above and below, all temperatures were indicated in ° C.

| SMILES | IC50 [nM] |
| --- | --- |
| O=c1[nH]c2cnccc2n1-c1cc(-c2cc(Cl)ccc2F)nc2ccccc12 [compound 023, N*4*-[2-(5-Chloro-2-fluoro-phenyl)-quinolin-4-yl]-pyridine-3,4-diamine urea] | < 500 |
| COc1cccc(-c2cc(Nc3ccncc3)c3ccccc3n2)c1 [compound 049] | 500 to 1000 |
| CC(=O)OC(C)(C)C(=O)Nc1cnccc1Nc1cc(-c2cc(Cl)ccc2F)nc2ccccc12 [compound 088] | 1000 to 10000 |
| Cc1nc2cnccc2n1-c1cc(-c2cc(Cl)ccc2F)nc2ccccc12 [compound 026] | 500 to 1000 |
| Fc1ccc(C(F)(F)F)cc1-c1cc(Nc2ccncc2)c2ccccc2n1 [compound 056] | < 500 |
| Cc1cncc(-c2cc(Nc3ccncc3)c3ccccc3n2)c1 [compound 066] | > 10000 |
| Fc1ccc(Cl)cc1-c1cc(Nc2ncnc3ccccc23)c2ccccc2n1 [compound 068] | < 500 |
| CN1CCC(C(=O)Nc2cnccc2Nc2cc(-c3cc(Cl)ccc3F)nc3ccccc23)CC1 [compound 027] | < 500 |
| Fc1ccc(Cl)c(-c2cc(Nc3ccncc3)c3ccccc3n2)c1 [compound 070] | 1000 to 10000 |
| CN1CCN(C(=O)Nc2cnccc2Nc2cc(-c3cc(Cl)ccc3F)nc3ccccc23)CC1 [compound 062] | 500 to 1000 |
| CN(C)CCCNc1cc(Nc2cc(-c3ccccc3F)nc3ccccc23)ccn1 [compound 121] | < 500 |
| O=C(O)CCNc1cnccc1Nc1cc(-c2cc(Cl)ccc2F)nc2ccccc12 [compound 071] | > 10000 |
| O=C(CO)Nc1cnccc1Nc1cc(-c2cc(Cl)ccc2F)nc2ccccc12 [compound 109] | 500 to 1000 |
| Fc1ccc(Cl)cc1-c1cc(Nc2ccncc2C(F)(F)F)c2ccccc2n1 [compound 008] | < 500 |
| Nc1cnccc1Nc1cc(-c2cc(Cl)ccc2F)nc2ccccc12 [compound 019] | < 500 |
| CN1CCN(c2cc(Nc3cc(-c4cc(Cl)ccc4F)nc4ccccc34)ccn2)CC1 [compound 100] | 1000 to 10000 |
| CN1CCN(c2nccc(Nc3cc(-c4cc(Cl)ccc4F)nc4ccccc34)n2)CC1 [compound 015] | > 10000 |
| Oc1ccc2c(Nc3cc(-c4cc(Cl)ccc4F)nc4ccccc34)ccnc2c1 [compound 098] | 500 to 1000 |
| O=c1[nH]c2cnccc2n1-c1c(O)c(-c2cc(Cl)ccc2F)nc2ccccc12 [compound 053] | 1000 to 10000 |

| SMILES | IC50 [nM] |
| --- | --- |
| Nc1ccnc(Nc2cc(-c3cc(Cl)ccc3F)nc3ccccc23)c1 [compound 035] | > 10000 |
| NCC(=O)Nc1cc(Nc2cc(-c3cc(Cl)ccc3F)nc3ccccc23)ccn1 [compound 115] | 1000 to 10000 |
| OCc1cnccc1Nc1cc(-c2cc(Cl)ccc2F)nc2ccccc12 [compound 120] | < 500 |
| O=S1(=O)Nc2cnccc2N1c1cc(-c2cc(Cl)ccc2F)nc2ccccc12 [compound 025] | < 500 |
| Fc1ccc(Cl)cc1-c1cc(Oc2cccnc2)c2ccccc2n1 [compound 063] | > 10000 |
| CN1CCC(NC(=O)c2cnccc2Nc2cc(-c3cc(Cl)ccc3F)nc3ccccc23)CC1 [compound 125] | < 500 |
| Fc1ccc(Cl)cc1-c1cc(Nc2ccnc3cccnc23)c2ccccc2n1 [compound 024] | < 500 |
| Oc1ccccc1-c1cc(Nc2ccncc2)c2ccccc2n1 [compound 099] | > 10000 |
| Nc1cc(Nc2cc(-c3cc(Cl)ccc3F)nc3ccccc23)ncn1 [compound 038] | < 500 |
| Nc1cnccc1N(CCC(=O)O)c1cc(-c2cc(Cl)ccc2F)nc2ccccc12 [compound 072] | > 10000 |
| Clc1cccc(-c2cc(Nc3ccncc3)c3ccccc3n2)c1 [compound 059] | < 500 |
| COc1cnccc1Nc1cc(-c2cc(Cl)ccc2F)nc2ccccc12 [compound 090, [2-(5-Chloro-2-fluoro-phenyl)-quinolin-4-yl]-(3-methoxy-pyridin-4-yl)-amine] | < 500 |
| Fc1ccc(Cl)cc1-c1cc(Nc2ccnc3ccccc23)c2ccccc2n1 [compound 013] | < 500 |
| CC(=O)OCC(=O)Nc1cnccc1Nc1cc(-c2cc(Cl)ccc2F)nc2ccccc12 [compound 085] | < 500 |
| Fc1ccc(F)c(-c2cc(Nc3ccncc3)c3ccccc3n2)c1 [compound 043] | < 500 |
| CN(C)CCNC(=O)c1cnccc1Nc1cc(-c2cc(Cl)ccc2F)nc2ccccc12 [compound 123] | < 500 |
| O=c1[nH]c2cnccc2n1-c1cc(-c2ccccc2F)nc2ccccc12 [compound 034] | 500 to 1000 |
| CC(C)(C)OC(=O)NCC(=O)Nc1cc(Nc2cc(-c3cc(Cl)ccc3F)nc3ccccc23)ccn1 [compound 114] | 1000 to 10000 |
| COCc1nc2cnccc2n1-c1cc(-c2cc(Cl)ccc2F)nc2ccccc12 [compound 089, 2-(5-Chloro-2-fluoro-phenyl)-4-(2-methoxymethyl-imidazo[4,5-c]pyridin-1-yl)-quinoline] | < 500 |

Other lines, results leading:

| IC50 [nM] | SMILES |
| --- | --- |
| > 10000 | FC(F)(F)c1ccc(Cl)cc1-c1cc(Nc2ccncc2)c2ccccc2n1 [compound 058] |
| > 10000 | Fc1ccc(Cl)cc1-c1cc(NCc2cccnc2)c2ccccc2n1 [compound 065] |
| 1000 to 10000 | N#Cc1cccc(-c2cc(Nc3ccncc3)c3ccccc3n2)c1 [compound 055] |
| < 500 | N#Cc1cncnc1Nc1cc(-c2cc(Cl)ccc2F)nc2ccccc12 [compound 122] |
| > 10000 | Fc1ccc(Cl)cc1-c1cc(Nc2cnncc2Nc2cc(-c3cc(Cl)ccc3F)nc3ccccc23)c2ccccc2n1 [compound 087] |
| 1000 to 10000 | CCN(CC)CCNS(=O)(=O)Nc1cnccc1Nc1cc(-c2cc(Cl)ccc2F)nc2ccccc12 [compound 076] |
| < 500 | Fc1ccc(Cl)cc1-c1cc(Nc2cn[nH]c2)c2ccccc2n1 [compound 016] |
| < 500 | Clc1ccccc1-c1cc(Nc2ccncc2)c2ccccc2n1 [compound 050] |
| > 10000 | Fc1ccc(Cl)cc1-c1cc(Nc2cc(Nc3cc(-c4cc(Cl)ccc4F)nc4ccccc34)ncn2)c2ccccc2n1 [compound 036] |
| > 10000 | Fc1ccc(Cl)cc1-c1cc(Nc2ccncc2)c2cc3c(cc2n1)OCO3 [compound 095] |
| < 500 | Nc1ncnc(Nc2cc(-c3cc(Cl)ccc3F)nc3ccccc23)n1 [compound 078] |
| 1000 to 10000 | O=C(Nc1cc(-c2cc(Cl)ccc2F)nc2ccccc12)c1cccnc1 [compound 010] |
| < 500 | Fc1ccc(Cl)cc1-c1cc(Nc2ccnc3cc(C(F)(F)F)ccc23)c2ccccc2n1 [compound 069] |
| 1000 to 10000 | O=C(Nc1cc(-c2cc(Cl)ccc2F)nc2ccccc12)c1ccncc1 [compound 009] |
| 500 to 1000 | CN(C)CCCC(=O)Nc1cnccc1Nc1cc(-c2cc(Cl)ccc2F)nc2ccccc12 [compound 067] |
| 1000 to 10000 | CN(C)CCCc1nc2cnccc2n1-c1cc(-c2cc(Cl)ccc2F)nc2ccccc12 [compound 091] |
| > 10000 | Nc1ccncc1Nc1cc(-c2cc(Cl)ccc2F)nc2ccccc12 [compound 029] |
| > 10000 | CC(C)(C)S(=O)(=O)c1cnccc1Nc1cc(-c2cc(Cl)ccc2F)nc2ccccc12 [compound 096] |

| IC50 [nM] | SMILES |
| --- | --- |
| > 10000 | Fc1ccc(Cl)cc1-c1cc(Nc2cccnc2)c2ccccc2n1 [compound 012] |
| < 500 | c1ccc(-c2cc(Nc3ccncc3)c3ccccc3n2)cc1 [compound 073] |
| > 10000 | FC(F)(F)c1ccccc1-c1cc(Nc2ccncc2)c2ccccc2n1 [compound 083] |
| 500 to 1000 | CC(C)(C)Sc1cnccc1Nc1cc(-c2cc(Cl)ccc2F)nc2ccccc12 [compound 094] |
| < 500 | Fc1ccc(Cl)cc1-c1cc(Nc2ccnnc2)c2ccccc2n1 [compound 020] |
| < 500 | Clc1ccc(Cl)c(-c2cc(Nc3ccncc3)c3ccccc3n2)c1 [compound 048] |
| < 500 | CN(C)C(=O)Nc1cnccc1Nc1cc(-c2cc(Cl)ccc2F)nc2ccccc12 [compound 031] |
| 1000 to 10000 | Nc1cnccc1Nc1cc(-c2ccccc2F)nc2ccccc12 [compound 074, N*4*-[2-(2-fluoro-phenyl)-quinolin-4-yl]-pyridine-3,4-diamine] |
| 500 to 1000 | CN(c1ccncc1)c1cc(-c2cc(Cl)ccc2F)nc2ccccc12 [compound 007] |
| > 10000 | CN(C)c1cccc(-c2cc(Nc3cc(N)ncn3)c3ccccc3n2)c1 [compound 080] |
| < 500 | Fc1ccccc1-c1cc(Nc2ccncc2)c2ccccc2n1 [compound 044] |
| < 500 | Fc1ccc(Br)cc1-c1cc(Nc2ccncc2)c2ccccc2n1 [compound 084] |
| < 500 | CCOC(=O)n1c(=O)n(-c2cc(-c3cc(Cl)ccc3F)nc3ccccc23)c2ccncc21 [compound 039] |
| < 500 | Nc1ncnc(Nc2cc(-c3cc(C(F)(F)F)ccc3F)nc3ccccc23)n1 [compound 118] |
| < 500 | Fc1ccccc1-c1cc(Nc2ccncn2)c2ccccc2n1 [compound 045] |
| 1000 to 10000 | O=S(=O)(CC(F)(F)F)Nc1cnccc1Nc1cc(-c2cc(Cl)ccc2F)nc2ccccc12 [compound 030] |
| 1000 to 10000 | CC(C)(C)C(=O)Nc1cc(Nc2cc(-c3cc(Cl)ccc3F)nc3ccccc23)ccn1 [compound 111] |
| > 10000 | CN(C)c1cccc(-c2cc(Nc3ccncn3)c3ccccc3n2)c1 [compound 081] |
